Experimental data reported in ChEMBL document CHEMBL1201862, “PubChem BioAssay data set” (2004).
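Results reflect a 48-hour exposure of cells in 96-well plates to compound at five concentrations. GI50 marks 50% less growth.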 Active and inactive are the calls of the source. Rule as the data show it: active = GI50 up to about 1.1 µM and inactive = higher.

Key:
Assay in all cases: NCI-60 cell line screen, 48 h
A549 = tested on: A549
CCRF-CEM = tested on: CCRF-CEM
HCC 2998 = tested on: HCC 2998
HOP-62 = tested on: HOP-62
M14 = tested on: M14
MCF7 = tested on: MCF7
MOLT-4 = tested on: MOLT-4
Malme-3M = tested on: Malme-3M
NCI-H226 = tested on: NCI-H226
NCI-H522 = tested on: NCI-H522
RPMI-8226 = tested on: RPMI-8226
SF-295 = tested on: SF-295
SK-MEL-28 = tested on: SK-MEL-28
SK-OV-3 = tested on: SK-OV-3
SNB-19 = tested on: SNB-19
SW-620 = tested on: SW-620
U-251 = tested on: U-251
UACC-62 = tested on: UACC-62
SNB-75 = tested on: SNB-75
NCI/ADR-RES = tested on: NCI/ADR-RES

Row | Compound | GI50 (A549) | GI50 (CCRF-CEM) | GI50 (HCC 2998) | GI50 (HOP-62) | GI50 (M14) | GI50 (MCF7) | GI50 (MOLT-4) | GI50 (Malme-3M) | GI50 (NCI-H226) | GI50 (NCI-H522) | GI50 (RPMI-8226) | GI50 (SF-295) | GI50 (SK-MEL-28) | GI50 (SK-OV-3) | GI50 (SNB-19) | GI50 (SW-620) | GI50 (U-251) | GI50 (UACC-62) | GI50 (SNB-75) | GI50 (NCI/ADR-RES)
1 | CC(=O)NCCCCN(CCCNC(C)=O)C(=O)CNS(=O)(=O)c1cccc2c(N(C)C)cccc12 | > 100 µM (inactive) | > 100 µM (inactive) | > 100 µM (inactive) | > 100 µM (inactive) | > 100 µM (inactive) | > 100 µM (inactive) | > 100 µM (inactive) | > 100 µM (inactive) | > 100 µM (inactive) | > 100 µM (inactive) | > 100 µM (inactive) | > 100 µM (inactive) | > 100 µM (inactive) | > 100 µM (inactive) | > 100 µM (inactive) | > 100 µM (inactive) | > 100 µM (inactive) | > 100 µM (inactive) | – | –
2 | Cc1csc(=S)n1OC(=O)NC1CCCCC1 | > 73.3 µM (inactive) | 9.57 µM (inactive) | > 100 µM (inactive) | > 100 µM (inactive) | 40.9 µM (inactive) | – | 9.77 µM (inactive) | > 100 µM (inactive) | > 100 µM (inactive) | 18.1 µM (inactive) | 23.6 µM (inactive) | > 100 µM (inactive) | > 34.6 µM (inactive) | > 100 µM (inactive) | > 100 µM (inactive) | > 56.8 µM (inactive) | 63.8 µM (inactive) | > 38.1 µM (inactive) | > 79.4 µM (inactive) | –
3 | Clc1ccc(/C=c2\nc(-c3ccccc3)n3c2nc2ccccc23)cc1 | > 100 µM (inactive) | > 100 µM (inactive) | – | 38.4 µM (inactive) | > 100 µM (inactive) | > 100 µM (inactive) | > 100 µM (inactive) | > 100 µM (inactive) | > 100 µM (inactive) | – | > 100 µM (inactive) | 25.5 µM (inactive) | 0.0465 µM (active) | 43.3 µM (inactive) | > 100 µM (inactive) | > 100 µM (inactive) | 49.1 µM (inactive) | > 100 µM (inactive) | – | 28.2 µM (inactive)
4 | O=C(c1ccco1)N(C(=S)OCc1ccccn1)c1ccccc1 | – | 69.8 µM (inactive) | – | 16 µM (inactive) | > 100 µM (inactive) | 75.3 µM (inactive) | > 100 µM (inactive) | 17.2 µM (inactive) | 29.6 µM (inactive) | – | 49.3 µM (inactive) | – | > 100 µM (inactive) | > 100 µM (inactive) | > 100 µM (inactive) | > 100 µM (inactive) | > 100 µM (inactive) | > 100 µM (inactive) | – | 62.5 µM (inactive)
5 | CCCCCCCCCC(=O)CC(=O)c1ccc(O)cc1O | 31.3 µM (inactive) | 33.9 µM (inactive) | 21.3 µM (inactive) | 19.8 µM (inactive) | 22.1 µM (inactive) | – | 17.6 µM (inactive) | 52.6 µM (inactive) | 24.3 µM (inactive) | 18.6 µM (inactive) | 19.5 µM (inactive) | 25.6 µM (inactive) | 39.8 µM (inactive) | > 100 µM (inactive) | 37 µM (inactive) | 36.5 µM (inactive) | 26.9 µM (inactive) | 21.2 µM (inactive) | 33.6 µM (inactive) | –
6 | O=C1CN(c2ccc(Cl)cc2)C(=O)CN1CCN1CC(=O)N(c2ccc(Cl)cc2)CC1=O | > 100 µM (inactive) | > 100 µM (inactive) | > 100 µM (inactive) | > 100 µM (inactive) | > 100 µM (inactive) | > 100 µM (inactive) | > 100 µM (inactive) | > 100 µM (inactive) | – | > 100 µM (inactive) | > 100 µM (inactive) | > 100 µM (inactive) | > 100 µM (inactive) | > 100 µM (inactive) | > 100 µM (inactive) | > 100 µM (inactive) | > 100 µM (inactive) | > 100 µM (inactive) | > 100 µM (inactive) | –
7 | CCOC(=O)C(Cc1c[nH]c2cc([N+](=O)[O-])ccc12)NS(=O)(=O)c1ccc2ccccc2c1 (configuration not stated) | 30.6 µM (inactive) | 20.1 µM (inactive) | 24.2 µM (inactive) | 15.7 µM (inactive) | 19 µM (inactive) | – | 26 µM (inactive) | > 10 µM (inactive) | 16.7 µM (inactive) | 16.3 µM (inactive) | 22 µM (inactive) | 17.3 µM (inactive) | 18.2 µM (inactive) | 23.4 µM (inactive) | 37.9 µM (inactive) | 21.2 µM (inactive) | 17.6 µM (inactive) | 16.7 µM (inactive) | 17.1 µM (inactive) | –
8 | CCCCCCCCCCCCCCCCCCNC(=S)N/C=C1\C(=O)Nc2ccccc2C1=O | 21.1 µM (inactive) | – | 16.3 µM (inactive) | 15.6 µM (inactive) | 18.3 µM (inactive) | 20.2 µM (inactive) | 12.7 µM (inactive) | – | 22.9 µM (inactive) | – | – | 21.4 µM (inactive) | 16.5 µM (inactive) | 19.2 µM (inactive) | 17.3 µM (inactive) | 19.5 µM (inactive) | 19.2 µM (inactive) | – | 13.2 µM (inactive) | 18.4 µM (inactive)
9 | Nc1nc(N)c(-c2ccccc2)c(CCC(=O)Nc2ccc(Cl)cc2)n1 | > 100 µM (inactive) | > 100 µM (inactive) | > 100 µM (inactive) | > 100 µM (inactive) | > 100 µM (inactive) | – | > 100 µM (inactive) | > 100 µM (inactive) | > 100 µM (inactive) | > 100 µM (inactive) | > 100 µM (inactive) | > 100 µM (inactive) | > 100 µM (inactive) | > 100 µM (inactive) | > 100 µM (inactive) | > 100 µM (inactive) | > 100 µM (inactive) | > 100 µM (inactive) | > 100 µM (inactive) | –
10 | COC1=CCC=C(C[C@@H]2NCCc3cc(OC)c(OC)cc32)C1 | > 100 µM (inactive) | > 100 µM (inactive) | > 100 µM (inactive) | > 100 µM (inactive) | > 100 µM (inactive) | – | > 100 µM (inactive) | > 100 µM (inactive) | 32.1 µM (inactive) | > 100 µM (inactive) | > 100 µM (inactive) | > 100 µM (inactive) | > 100 µM (inactive) | > 100 µM (inactive) | > 100 µM (inactive) | > 100 µM (inactive) | > 100 µM (inactive) | > 100 µM (inactive) | > 100 µM (inactive) | –
11 | Cn1cc(NC(=O)c2cc(NC(=O)CCCCCCCCC(=O)Nc3cc(C(=O)Nc4cc(C(=O)NCCC(N)N)n(C)c4)n(C)c3)cn2C)cc1C(=O)NCCC(=N)N | 16.9 µM (inactive) | 20.7 µM (inactive) | 24.7 µM (inactive) | 33 µM (inactive) | 22.3 µM (inactive) | – | 19.9 µM (inactive) | 0.935 µM (active) | 25.8 µM (inactive) | 8.99 µM (inactive) | 5.35 µM (inactive) | 23.3 µM (inactive) | 12.1 µM (inactive) | 27.9 µM (inactive) | 21.4 µM (inactive) | 19.6 µM (inactive) | 17 µM (inactive) | 20.7 µM (inactive) | 18.1 µM (inactive) | –
12 | O=C(O)c1cc(NC2=C(Cl)C(=O)c3c(O)ccc(O)c3C2=O)ccc1O | > 10 µM (inactive) | > 10 µM (inactive) | > 10 µM (inactive) | > 10 µM (inactive) | > 10 µM (inactive) | > 10 µM (inactive) | > 10 µM (inactive) | > 10 µM (inactive) | > 10 µM (inactive) | – | – | > 10 µM (inactive) | > 10 µM (inactive) | > 10 µM (inactive) | > 10 µM (inactive) | > 10 µM (inactive) | > 10 µM (inactive) | > 10 µM (inactive) | > 10 µM (inactive) | > 10 µM (inactive)
13 | Cc1cccc(NC(=O)C(=O)C(C(=O)c2ccc3ccccc3c2)C2OC(=O)c3ccccc32)c1C (configuration not stated) | 19.1 µM (inactive) | 8.02 µM (inactive) | 6.03 µM (inactive) | 10.7 µM (inactive) | 14.4 µM (inactive) | – | 3.78 µM (inactive) | 6.05 µM (inactive) | 2.39 µM (inactive) | 14.1 µM (inactive) | 6.98 µM (inactive) | – | 5.2 µM (inactive) | 12.7 µM (inactive) | 5.4 µM (inactive) | 7.98 µM (inactive) | 5.21 µM (inactive) | 10.4 µM (inactive) | 8.49 µM (inactive) | –
14 | COc1cc2ccc3c4cc(OC)c(OC(C)C)cc4cnc3c2cc1OC | > 100 µM (inactive) | > 100 µM (inactive) | > 100 µM (inactive) | > 100 µM (inactive) | > 100 µM (inactive) | – | > 100 µM (inactive) | > 100 µM (inactive) | > 100 µM (inactive) | > 100 µM (inactive) | > 100 µM (inactive) | > 100 µM (inactive) | > 100 µM (inactive) | > 100 µM (inactive) | > 100 µM (inactive) | > 100 µM (inactive) | > 100 µM (inactive) | > 100 µM (inactive) | > 100 µM (inactive) | –
15 | Cc1cccc(Cl)c1NC(=O)c1cccc([N+](=O)[O-])c1O | 35.7 µM (inactive) | 73.5 µM (inactive) | 31.7 µM (inactive) | 20.1 µM (inactive) | 43.8 µM (inactive) | – | 29.2 µM (inactive) | 27 µM (inactive) | 22.2 µM (inactive) | 20.4 µM (inactive) | 21.2 µM (inactive) | 28.9 µM (inactive) | 41.5 µM (inactive) | 43.2 µM (inactive) | 38.5 µM (inactive) | 59 µM (inactive) | 33.7 µM (inactive) | 25.4 µM (inactive) | 33.9 µM (inactive) | –
